The target of experiment [1] is PfCDPK1 (Plasmodium falciparum (isolate 3D7), UniProt P62344). Kind of experiment: biochemical. Particulars: read-out: PfCDPK1 (% inhibition @ 3 uM).
Experiment [2] concerns the target PfCDPK4 (Plasmodium falciparum (isolate 3D7), UniProt Q8IBS5). Briefly: biochemical. Particulars: read-out: PfCDPK4 (% inhibition @ 3 uM).

Each structure is given as a SMILES string.

As for `CC(C)n1nc(Cc2cccc3ccccc23)c2c(N)ncnc21` [Compound 3, 1-isopropyl-3-(naphthalen-1-ylmethyl)-1H-pyrazolo[3,4-d]pyrimidin-4-amine], the inhibition – broadly, how much of the control response was suppressed – at 3 µM in experiment [1] is 78%; in experiment [2] it was 76%.
As to `Cn1nc(Cc2cccc3ccccc23)c2c(N)ncnc21` [Compound 5a, 1-methyl-3-(naphthalen-1-ylmethyl)-1H-pyrazolo[3,4-d]pyrimidin-4-amine], the inhibition at 3 µM in experiment [2] was 52%.
Same read-out and setting: as for `C#CCn1nc(Cc2cccc3ccccc23)c2c(N)ncnc21` [Compound 5b, 3-(naphthalen-1-ylmethyl)-1-(prop-2-ynyl)-1H-pyrazolo[3,4-d]pyrimidin-4-amine], the figure is 20%.
Turning to `NC(=O)Cn1nc(Cc2cccc3ccccc23)c2c(N)ncnc21` [Compound 5c, 2-(4-amino-3-(naphthalen-1-ylmethyl)-1H-pyrazolo[3,4-d]pyrimidin-1-yl)acetamide], the inhibition at 3 µM in experiment [1] is 45%; in experiment [2], 23%.
On the same counts, the results for `CC(C)(C)n1nc(Cc2cccc3ccccc23)c2c(N)ncnc21` [Compound 5d, 1-tert-butyl-3-(naphthalen-1-ylmethyl)-1H-pyrazolo[3,4-d]pyrimidin-4-amine] are 76% and 86%.
For the compound `Nc1ncnc2c1c(Cc1cccc3ccccc13)nn2Cc1ccccc1` [Compound 5e, 1-benzyl-3-(naphthalen-1-ylmethyl)-1H-pyrazolo[3,4-d]pyrimidin-4-amine], the inhibition at 3 µM in experiment [2] worked out at 5%.
Still for that read-out and setting: as for `Nc1ncnc2c1c(Cc1cccc3ccccc13)nn2C1CCCCC1` [Compound 5f, 1-cyclohexyl-3-(naphthalen-1-ylmethyl)-1H-pyrazolo[3,4-d]pyrimidin-4-amine], the figure is 15%.
On to `Nc1ncnc2c1c(Cc1cccc3ccccc13)nn2C1CCNCC1` [Compound 5g, 3-(naphthalen-1-ylmethyl)-1-(piperidin-4-yl)-1H-pyrazolo[3,4-d]pyrimidin-4-amine], for which the inhibition at 3 µM amounted to 56% in experiment [1] and 75% in experiment [2].
On the same counts, the results for `Nc1ncnc2c1c(Cc1cccc3ccccc13)nn2CCC1CCNCC1` [Compound 5i, 3-(naphthalen-1-ylmethyl)-1-(2-(piperidin-4-yl)ethyl)-1H-pyrazolo[3,4-d]pyrimidin-4-amine] are 58% and 80%.
In the case of `CC(=O)N1CCC(n2nc(Cc3cccc4ccccc34)c3c(N)ncnc32)CC1` [Compound 5j, 1-(4-(4-amino-3-(naphthalen-1-ylmethyl)-1H-pyrazolo[3,4-d]pyrimidin-1-yl)piperidin-1-yl)ethanone], the inhibition at 3 µM in experiment [2] came to 48%.
Turning to `CC(=O)N1CCC(Cn2nc(Cc3cccc4ccccc34)c3c(N)ncnc32)CC1` [Compound 5k, 1-(4-((4-amino-3-(naphthalen-1-ylmethyl)-1H-pyrazolo[3,4-d]pyrimidin-1-yl)methyl)piperidin-1-yl)ethanone], the values for the inhibition at 3 µM in experiment [1] and in experiment [2] were 69% and 28%, respectively.
On the same counts, the results for `CC(=O)N1CCC(CCn2nc(Cc3cccc4ccccc34)c3c(N)ncnc32)CC1` [Compound 5l, 1-(4-(2-(4-amino-3-(naphthalen-1-ylmethyl)-1H-pyrazolo[3,4-d]pyrimidin-1-yl)ethyl)piperidin-1-yl)ethanone] are 51% and 41%.
In the case of `CCN1CCC(n2nc(Cc3cccc4ccccc34)c3c(N)ncnc32)CC1` [Compound 5m, 1-(1-ethylpiperidin-4-yl)-3-(naphthalen-1-ylmethyl)-1H-pyrazolo[3,4-d]pyrimidin-4-amine], the inhibition at 3 µM in experiment [2] was 42%.
Take `CCN1CCC(Cn2nc(Cc3cccc4ccccc34)c3c(N)ncnc32)CC1` [Compound 5n, 1-((1-ethylpiperidin-4-yl)methyl)-3-(naphthalen-1-ylmethyl)-1H-pyrazolo[3,4-d]pyrimidin-4-amine]: the inhibition at 3 µM in experiment [1] was 49%; in experiment [2], 27%.
The like results for `CCN1CCC(CCn2nc(Cc3cccc4ccccc34)c3c(N)ncnc32)CC1` [Compound 5o, 1-(2-(1-ethylpiperidin-4-yl)ethyl)-3-(naphthalen-1-ylmethyl)-1H-pyrazolo[3,4-d]pyrimidin-4-amine] were, in that order, 71% and 37%.
With `CS(=O)(=O)N1CCC(n2nc(Cc3cccc4ccccc34)c3c(N)ncnc32)CC1` [Compound 5p, 1-(1-(methylsulfonyl)piperidin-4-yl)-3-(naphthalen-1-ylmethyl)-1H-pyrazolo[3,4-d]pyrimidin-4-amine], the inhibition at 3 µM in experiment [2] is 53%.
On to `CS(=O)(=O)N1CCC(Cn2nc(Cc3cccc4ccccc34)c3c(N)ncnc32)CC1` [Compound 5q, 1-((1-(methylsulfonyl)piperidin-4-yl)methyl)-3-(naphthalen-1-ylmethyl)-1H-pyrazolo[3,4-d]pyrimidin-4-amine], for which the inhibition at 3 µM turned out to be 78% in experiment [1] and 15% in experiment [2].
On the same counts, the results for `CS(=O)(=O)N1CCC(CCn2nc(Cc3cccc4ccccc34)c3c(N)ncnc32)CC1` [Compound 5r, 1-(2-(1-(methylsulfonyl)piperidin-4-yl)ethyl)-3-(naphthalen-1-ylmethyl)-1H-pyrazolo[3,4-d]pyrimidin-4-amine] are 55% and 22%.
On the same counts, the results for `CC(C)n1nc(-c2cccc(OCc3ccccc3)c2)c2c(N)ncnc21` [Compound 7aa, 3-(3-(benzyloxy)phenyl)-1-isopropyl-1H-pyrazolo[3,4-d]pyrimidin-4-amine] are 75% and 18%.
For the compound `CC(C)n1nc(-c2ccc3c(c2)CCCO3)c2c(N)ncnc21` [Compound 7w, 3-(chroman-6-yl)-1-isopropyl-1H-pyrazolo[3,4-d]pyrimidin-4-amine], the inhibition at 3 µM in experiment [2] amounted to 55%.
On the same count and under the same terms, as for `CC(C)n1nc(-c2cccc3c2sc2ccccc23)c2c(N)ncnc21` [Compound 7x, 3-(dibenzo[b,d]thiophen-4-yl)-1-isopropyl-1H-pyrazolo[3,4-d]pyrimidin-4-amine], the figure is 21%.
Same read-out and setting: as for `CC(C)n1nc(-c2cccc(Cc3ccccc3)c2)c2c(N)ncnc21` [Compound 7y, 3-(3-benzylphenyl)-1-isopropyl-1H-pyrazolo[3,4-d]pyrimidin-4-amine], the figure is 17%; as for `Nc1ncnc2c1c(Cc1cccc3ccccc13)nn2C1CCCC1` [Compound 13, 1-cyclopentyl-3-(naphthalen-1-ylmethyl)-1H-pyrazolo[3,4-d]pyrimidin-4-amine], 25%.
The same measure, in the same setting: as for `CC(C)n1nc(Cc2ccc3ccccc3c2)c2c(N)ncnc21` [Compound 14, 1-isopropyl-3-(naphthalen-2-ylmethyl)-1H-pyrazolo[3,4-d]pyrimidin-4-amine], the figure is 13%; as for `Nc1ncnc2c1c(Cc1cccc3ccccc13)nn2C1CCOCC1` [Compound 15, 3-(naphthalen-1-ylmethyl)-1-(tetrahydro-2H-pyran-4-yl)-1H-pyrazolo[3,4-d]pyrimidin-4-amine], 11%.
Regarding `CC(C)n1nc(-c2cccnc2)c2c(N)ncnc21` [Compound 16, 1-isopropyl-3-(pyridin-3-yl)-1H-pyrazolo[3,4-d]pyrimidin-4-amine], the inhibition at 3 µM in experiment [2] was determined as 13%.
On the same count and under the same terms, as for `CC(C)n1nc(-c2cncnc2)c2c(N)ncnc21` [Compound 18, 1-isopropyl-3-(pyrimidin-5-yl)-1H-pyrazolo[3,4-d]pyrimidin-4-amine], the figure is 4%; as for `CC(C)n1nc(-c2ccnc(Cl)c2)c2c(N)ncnc21` [Compound 19, 3-(2-chloropyridin-4-yl)-1-isopropyl-1H-pyrazolo[3,4-d]pyrimidin-4-amine], 14%.
Still for that read-out and setting: as for `CC(C)n1nc(-c2ccc3c(ccn3C)c2)c2c(N)ncnc21` [Compound 20, 1-isopropyl-3-(1-methyl-1H-indol-5-yl)-1H-pyrazolo[3,4-d]pyrimidin-4-amine], the figure is 93%; as for `CC(C)n1nc(-c2cc3ccccc3[nH]2)c2c(N)ncnc21` [Compound 24, 3-(1H-indol-2-yl)-1-isopropyl-1H-pyrazolo[3,4-d]pyrimidin-4-amine], 93%; as for `COc1ccc2[nH]c(-c3nn(C(C)C)c4ncnc(N)c34)cc2c1` [Compound 27, 1-isopropyl-3-(5-methoxy-1H-indol-2-yl)-1H-pyrazolo[3,4-d]pyrimidin-4-amine], 44%.
The same measure, in the same setting: as for `CC(C)Oc1ccc2cc(-c3nn(CC4CCNCC4)c4ncnc(N)c34)ccc2c1` [Compound 32, 3-(6-isopropoxynaphthalen-2-yl)-1-(piperidin-4-ylmethyl)-1H-pyrazolo[3,4-d]pyrimidin-4-amine], the figure is 96%; as for `CCCOc1ccc2cc(-c3nn(CC4CCNCC4)c4ncnc(N)c34)ccc2c1` [Compound 33, 1-(piperidin-4-ylmethyl)-3-(6-propoxynaphthalen-2-yl)-1H-pyrazolo[3,4-d]pyrimidin-4-amine], 98%; as for `CCCCOc1ccc2cc(-c3nn(CC4CCNCC4)c4ncnc(N)c34)ccc2c1` [Compound 35, 3-(6-butoxynaphthalen-2-yl)-1-(piperidin-4-ylmethyl)-1H-pyrazolo[3,4-d]pyrimidin-4-amine], 99%.
As for `C=CCOc1ccc2cc(-c3nn(CC4CCNCC4)c4ncnc(N)c34)ccc2c1` [Compound 36, 3-(6-(allyloxy)naphthalen-2-yl)-1-(piperidin-4-ylmethyl)-1H-pyrazolo[3,4-d]pyrimidin-4-amine], in experiment [2], the inhibition at 3 µM amounted to 99%.
Consider `Nc1ncnc2c1c(-c1ccc3cc(OCc4ccccc4Cl)ccc3c1)nn2CC1CCNCC1` [Compound 37, 3-(6-(2-chlorobenzyloxy)naphthalen-2-yl)-1-(piperidin-4-ylmethyl)-1H-pyrazolo[3,4-d]pyrimidin-4-amine], for which the inhibition at 3 µM in experiment [2] was 96%.
Still for that read-out and setting: as for `Nc1ncnc2c1c(-c1ccc3cc(OCc4cccc(Cl)c4)ccc3c1)nn2CC1CCNCC1` [Compound 38, 3-(6-(3-chlorobenzyloxy)naphthalen-2-yl)-1-(piperidin-4-ylmethyl)-1H-pyrazolo[3,4-d]pyrimidin-4-amine], the figure is 96%.

These data come from patent publication US11247972B2, “Compositions and methods for treating toxoplasmosis, cryptosporidiosis, and other apicomplexan protozoan related diseases” (University of Washington through its Center for …, priority 2010, dated 2022).
